Where “and” joins values, the source holds several entries; their conditions need not be identical. Equal values may be shown once.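 Where inhibition never reached the appropriate level, the endpoint shown equals the highest concentration tested. Otherwise, values were interpolated linearly from a five-concentration, 48-hour dose response in 96-well plates. Abbreviation: GI50, concentration required for 50% inhibition of growth. TGI: total growth inhibition.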
Assays:
Experiment in all cases: inhibition of tumour cell growth, NCI panel, 48 h
[1] = tested on: 786-0 renal
[2] = tested on: A498 renal
[3] = tested on: A549 NSCLC
[4] = tested on: ACHN renal
[5] = tested on: BT-549 breast
[6] = tested on: CAKI-1 renal
[7] = tested on: CCRF-CEM leukemia
[8] = tested on: DU-145 prostate
[9] = tested on: EKVX NSCLC
[10] = tested on: HCC-2998 colon
[11] = tested on: HCT-15 colon
[12] = tested on: HOP-62 NSCLC
[13] = tested on: HOP-92 NSCLC
[14] = tested on: HT29 colon
[15] = tested on: IGROV1 ovarian
[16] = tested on: K-562 leukemia
[17] = tested on: LOX IMVI melanoma
[18] = tested on: M14 melanoma
[19] = tested on: MALME-3M melanoma
[20] = tested on: MDA-MB-231 breast
[21] = tested on: MDA-MB-435
[22] = tested on: MDA-N
[23] = tested on: MOLT-4 leukemia
[24] = tested on: NCI-H23 lung
[25] = tested on: NCI-H460 lung
[26] = tested on: NCI-H522 lung
[27] = tested on: NCI/ADR-RES ovarian
[28] = tested on: OVCAR-3 ovarian
[29] = tested on: OVCAR-4 ovarian
[30] = tested on: OVCAR-5 ovarian
[31] = tested on: OVCAR-8 ovarian
[32] = tested on: PC-3 prostate
[33] = tested on: RPMI-8226 leukemia
[34] = tested on: SF-268 CNS
[35] = tested on: SF-295 CNS
[36] = tested on: SF-539 CNS
[37] = tested on: SK-MEL-28 melanoma
[38] = tested on: SK-MEL-5 melanoma
[39] = tested on: SK-OV-3 ovarian
[40] = tested on: SN12C renal
[41] = tested on: SNB-19 CNS
[42] = tested on: SNB-75 CNS
[43] = tested on: SR leukemia
[44] = tested on: SW-620 colon
[45] = tested on: T-47D breast
[46] = tested on: TK-10 renal
[47] = tested on: U251 CNS
[48] = tested on: UACC-257 melanoma
[49] = tested on: UACC-62 melanoma
[50] = tested on: UO-31 renal
[51] = tested on: COLO 205 colon
[52] = tested on: HCT-116 colon
[53] = tested on: HL-60(TB) leukemia
[54] = tested on: HS 578T breast
[55] = tested on: KM12 colon
[56] = tested on: NCI-H226 lung
[57] = tested on: RXF 393 renal
[58] = tested on: SK-MEL-2 melanoma

CCC(C)C1NC(=O)C(NC(=O)C(CC(C)C)N(C)C(=O)[C@@H]2C=CCN2C(=O)[C@H](C)O)C(C)OC(=O)[C@H](Cc2ccc(OC)cc2)N(C)C(=O)[C@@H]2CCCN2C(=O)[C@H](CC(C)C)NC(=O)C(C)C(=O)[C@H](C(C)C)OC(=O)CC1O (stereo partly specified)
TGI [1]: 0.0135 µM and 0.0105 µM | TGI [2]: 0.0471 µM and 0.0481 µM | TGI [3]: 0.0131 µM | TGI [4]: 0.0513 µM | TGI [5]: 0.0153 µM | TGI [6]: 0.16 µM | TGI [7]: 0.0114 µM | TGI [8]: 0.0317 µM | TGI [9]: 0.0345 µM | TGI [10]: 0.0147 µM | TGI [11]: 0.111 µM | TGI [12]: 0.0177 µM | TGI [13]: 0.0382 µM | TGI [14]: 0.0335 µM and 0.0155 µM | TGI [15]: 0.0193 µM | TGI [16]: 0.0116 µM and 0.0104 µM | TGI [17]: 0.0105 µM | TGI [18]: 0.0123 µM | TGI [19]: 0.0134 µM | TGI [20]: 0.0351 µM and 0.0943 µM | TGI [21]: 0.0132 µM | TGI [22]: 0.0188 µM | TGI [23]: 0.00805 µM | TGI [24]: 0.00917 µM | TGI [25]: 0.0125 µM and 0.0227 µM | TGI [26]: 0.0108 µM | GI50 [27]: 0.0594 µM | TGI [27]: 11.7 µM | TGI [28]: 0.0282 µM and 0.0112 µM | TGI [29]: 0.00881 µM and 0.0112 µM | TGI [30]: 0.0738 µM | TGI [31]: 0.0386 µM | TGI [32]: 0.0271 µM | TGI [33]: 0.0201 µM | TGI [34]: 0.0109 µM and 0.0186 µM | TGI [35]: 0.02 µM | TGI [36]: 0.00467 µM | TGI [37]: 0.00567 µM | TGI [38]: 0.0102 µM | TGI [39]: 0.0317 µM | TGI [40]: 0.015 µM | TGI [41]: 0.0556 µM | TGI [42]: 0.0126 µM | TGI [43]: > 100 µM | TGI [44]: 0.0545 µM | TGI [45]: 0.0109 µM | TGI [46]: 0.0682 µM and 0.0246 µM | TGI [47]: 0.018 µM | TGI [48]: 0.0156 µM and 0.0134 µM | TGI [49]: 0.005 µM | TGI [50]: 0.0626 µM and 0.406 µM

c1ccc2c(c1)N[C@@H]1c3[nH]c4ccccc4c3CC[C@H]21
TGI [1]: 28.5 µM | TGI [2]: 32 µM | TGI [3]: 41.4 µM | TGI [4]: 68.1 µM | TGI [5]: 37.7 µM | TGI [6]: 38.6 µM | TGI [7]: 36.9 µM | TGI [51]: 27.9 µM | TGI [8]: 35.3 µM | TGI [9]: 37.2 µM | TGI [52]: 27.8 µM | TGI [11]: 65.3 µM | TGI [53]: 36.2 µM | TGI [12]: 26.9 µM | TGI [13]: 30.6 µM | TGI [54]: 25.9 µM | TGI [14]: 29.7 µM | TGI [15]: 20.9 µM | TGI [16]: 27.8 µM | TGI [55]: 30.7 µM | TGI [17]: 29.5 µM | TGI [18]: 26.4 µM | TGI [19]: 22.1 µM | TGI [20]: 29.9 µM | TGI [21]: 31.1 µM | TGI [22]: 39.2 µM | TGI [23]: 42 µM | TGI [56]: 31.6 µM | TGI [24]: 33 µM | TGI [25]: 33.9 µM | TGI [26]: 24.2 µM | TGI [27]: 28 µM | TGI [28]: 27.3 µM | TGI [30]: 29.4 µM | TGI [31]: 25.6 µM | TGI [32]: 24.6 µM | TGI [33]: 59 µM | TGI [57]: 32.6 µM | TGI [34]: 65.1 µM | TGI [35]: 29.7 µM | TGI [36]: 31.4 µM | TGI [58]: 31.7 µM | TGI [37]: 35.3 µM | TGI [38]: 27.3 µM | TGI [39]: 36.7 µM | TGI [40]: 28.5 µM | TGI [41]: 37.9 µM | TGI [42]: 22.8 µM | TGI [44]: 33.3 µM | TGI [45]: 76.2 µM | TGI [46]: > 100 µM | TGI [47]: 27.2 µM | TGI [48]: > 100 µM | TGI [49]: 31.6 µM | TGI [50]: 37.2 µM
